The test deals with T cell transfer colitis model. Kind of test: Amelioration of body weight loss in T cell transfer-induced colitis model. The note with it: colitis-induced SCID mice injected with CD4-positive CD45RB-high cells; orally once a day from Day 16 to 31; body weight Day 19-31. Format: in vivo. As for the experimental part:
By using colitis-induced SCID mice in which CD4-positive, CD45RB-high cells isolated from BALB/c mice splenocytes were injected, the efficacy of the example compounds was evaluated by the body weight changes. The experiment was performed over 31 days. On Day 1, CD4-positive, CD45RB-high cells isolated from the spleen of BALB/c mice (5×10^5 cells/mouse) were intravenously administered to SCID mice. From Day 16 to 31, the example compound was orally administered to the SCID mice once a day, followed by measuring body weights of all animals on Day 19, 22, 24, 26, 29 and 31. The efficacy was evaluated by body weight changes on Day 19, 22, 24, 26, 29 or 31. The body weight change (%) was determined by the formula shown below, where [A] is the body weight on Day 16, and [B] is the body weight on each day of body weight measurement (Day 19, 22, 24, 26, 29 or 31). body weight change (%)=B/A×100 (2) Results The results are shown in FIG. 6. The abscissa in the figures indicates the number of days elapsed, where the day on which CD4-positive, CD45RB-high cells isolated from the spleen of BALB/c mice (5×10^5 cells/mouse) were intravenously administered to SCID mice is Day 0.

Each structure is given as a SMILES string.

For `C[C@H]1CN(Cc2c(Cl)cccc2C(F)(F)F)C[C@@]1(CC(=O)O)C(=O)NC1CCN(CC2=CCCCC2)CC1` [compound (1), 2-[(3S,4R)-1-{[2-chloro-6-(trifluoromethyl)phenyl]methyl}-3-{[1-(cyclohex-1-en-1-ylmethyl)piperidin-4-yl]carbamoyl}-4-methylpyrrolidin-3-yl]acetic acid], the “effect on body weight change (FIG. 6)” value is reported as “weight reduction-suppressing effect”.

The record behind these values is US9550732B2, “Salt of pyrrolidin-3-yl acetic acid derivative and crystals thereof” (Eisai R&D Management Co., Ltd., priority 2013, dated 2017).
